Tests used:
[1] = tested on: C3H mice; test: Protection of mice from whole body irradiation; format: in vivo; settings: for Percent survival of mice at 30 days: 1100 cGy
Description: Female C3H mice were obtained from the Frederick Cancer Research Center--Animal Production in Frederick, Md. C3H mice have been used in whole body irradiation studies since 1948 (Patt, et al., Science, 110, 213-214 (1949)) and are considered to serve as good models for predicting the effects of radiation in humans.
C3H mice were received at six weeks of age and were housed five per cage in climate-controlled, circadian rhythm-adjusted rooms and allowed food and water ad libitum. The animals were 60-80 days old at the time of radiation. A total of 10-15 mice were used per radiation dose. Mice were weighed in groups of five. The weights of each group ranged from 110 grams to 135 grams or an average weight of 22-27 grams per mouse.
In all experiments drugs and diluent (in control mice) were injected intraperitoneally into mice in volumes equivalent to 1% of each animal's weight (0.22 to 0.27 ml). Groups of 5-10 mice were placed in round (30.5 cm diameter and 10.5 cm height) Plexiglas containers with holes for ventilation for irradiation. The irradiator was calibrated with thermoluminescent dosimetry chips planted in phantom mice, and the radiation dose was determined according to previously described methodology (Cameron et al., "Thermoluminescent Dosimetry" (Univ. of Wisconsin Press, Madison, Wis., 1968)). The dose rate used was 1 Gy/min. Total time of irradiation varied as a function of the dose delivered. Immediately after irradiation, the mice were separated into groups of five and returned to climate-controlled cages for observation. The mice were assessed daily for survival.
The results are shown in FIG. 7, which is a graph of percent surviving versus days after irradiation with 11 Gy for control mice (.box-solid., n=10), which were injected with saline, mice treated with DEA/NO 10 minutes prior to irradiation (.largecircle., n=15), and mice treated with DEA/NO 30 minutes prior to irradiation (.circle-solid., n=15).

[2] = tested on: Female C3H mice; test: Protection of mice against melphalan toxicity; format: in vivo; settings: 70 mg/kg DEA/NO, i.p.
Procedure: Female C3H mice were injected intraperitoneally with varying doses of melphalan alone or melphalan with 70 mg/kg DEA/NO. The methods employed were adaptations of the methods used in Examples 9 and 11.
FIG. 16 is a graph of % survival of animals versus does of melphalan (mg/kg) showing the chemotherapy survival curves for mice exposed to melphalan in the absence or presence of DEA/NO. […] DEA/NO provided approximately a 1.2 protection factor at the 50% survival level.

[3] = tested on: KHT tumors; test: In vivo radiosensitization of KHT tumors (regrowth delay); set-up: species or system C3H mice
Procedure: This murine model is one which is routinely used to test hypoxic radiosensitizers. In fact, results obtained with this model were used as a basis for initiating clinical trials of nitroimidazoles as radiation sensitizers in the early to mid-1970's.
C3H mice with hind leg implants of KHT tumors were exposed to radiation. When the tumors had grown to 8 mm in circumference, the mice were treated with DEA/NO alone (control), 15 cGy directed at the tumor, or DEA/NO given 30 minutes before tumor irradiation with 15 cGy (DEA/NO (30 min)). The mice experienced a tumor regrowth delay of one day after treatment of the tumor with 15 cGy.

[4] = tested on: Chinese hamster V79 lung fibroblasts; test: Radiation survival of hypoxic V79 cells (metabolism-mediated oxygen depletion), clonogenic assay, SER; format: cell-based; settings: 0.05 mM, 1% surviving fraction level

CCN(CC)/[N+]([O-])=N/[O-].[Na+] [DEA/NO]
protection from whole body irradiation ([1]; 80 mg/kg i.p. before irradiation): protected mice from whole-body irradiation | Percent survival of mice at 30 days ([1]; 80 mg/kg i.p. 10 min before): 44% | Percent survival of mice at 30 days ([1]; 80 mg/kg i.p. 30 min before): 60% | protection against the effects of melphalan [2]: protected the mice against the effects of melphalan | protection factor at the 50% survival level ([2]; varying melphalan doses): ~1.2 | tumor regrowth delay ([3]; 80 mg/kg 30 min before 15 cGy tumor irradiation): 8 days | survival with no evidence of tumor ([3]; DEA/NO (30 min) group, 15 cGy): Two animals in the DEA/NO (30 min) group survived for at least four weeks with no evidence of tumor | tumors eradicated ([3]; DEA/NO before 15 cGy, n=14): 14% | SER [4]: 1.0

Reference: patent publication US5650442A (priority 1994, dated 1997)
